Entries after “also recorded” stand apart in the source; their conditions may differ.
Columns and labels:
[1] = system: Orobanche aegyptiaca seeds; experiment: Orobanche Germination Assay (biological activity after stress treatments); format: in vivo; settings: with vs without HPC
Method: The implementation of the strigolactone analogs necessitates a degree of material stability, to ensure their activity on the plant under various growth conditions. Accordingly, the stability of the strigolactone analog GR24 was tested under different environmental conditions. GR24 in acetone stock solution of 5.6 mM was diluted in double distilled water (DDW) or HPC pre-made gel to a concentration of 0.56 μM in eppendorf tubes and was subjected to the following treatments:
GR24 solutions of 0.56 μM, diluted either in DDW or in HPC pre-made gel in eppendorf tubes were incubated in a dry block heater at temperatures of 4° C., 20° C., 40° C., 60° C. digitally set for periods of 3 h, 1 d, 2 d, 4 d, 5 d and 7 d under ambient light.
GR24 solutions of 0.56 μM, diluted either in DDW or in HPC pre-made gel, each in quartz tubes (15 replicates for each treatment) were exposed to UV radiation of λ=312 nm under UV lamp of 600 or 857 μE intensity for periods of 15 min, 30 min or 18 h.
Biological activity was determined by Orobanche Germination Assay: Approximately 30 to 50 seeds of Orobanche aegyptiaca were spread on a glass fiber filter paper disk (9-mm diameter) and put into sterile petri dishes (9-cm diameter) lined with Whatman filter paper wetted with 3 mL of demineralized water. Petri dishes were sealed with parafilm and incubated at 27° C. for preconditioning. After one week of preconditioning period, the glass fiber filter paper disks with Orobanche seeds were removed from the petri dish and dried for 20 min to remove surplus moisture. The disks were transferred to another petri dish within a filter paper ring (outer diameter of 9 cm; inner diameter of 8 cm) wetted with 0.9 mL of water, which maintained a moist environment during the germination bioassay. Forty microliters of the GR24 test solutions were added to the disks. Untreated GR24 at a 0.56 μM concentration was used as a positive control, water or HPC pre-made gel as negative controls. Germination percent was calculated using the counter cell analysis of the IMAGEJ (http://www.//rsbweb.nih.gov/ij/) software. Germinated seeds were distinguished from non-germinated seeds according to the seedling radicles, which are a few millimeters long and visible under a stereomicroscope (Leica MZFLIII, Leica Microsystems, GmbH).
For each of the GR24 treatments fifteen replicates with 30-40 seeds were tested per treatment with 40 μl of 0.56 μM GR24 test solutions pre-treated as described above. The experiment was repeated three times (n=450 seeds).
Next, GR24 was stabilized with Hydroxypropyl Cellulose (HPC), which is a […] medium. Granular HPC [Sigma-Aldrich Israel Ltd., CAS-No. 9004-64-2] […]

[2] = system: olive cuttings; experiment: Plate bioassay of bud outgrowth in olive cuttings; format: in vivo, Olea europaea L.
Method: For the purpose of determining whether the active SL analogs may be used as effective repressors of shoot branching by application on the stem itself, a bioassay examining SL analogs effect on shoot branching in vitro was established. Olive seedlings were grown in greenhouse under controlled temperature of 23° C. Partitioned plates containing ½ Murashige and Skoog (MS) solidified with 1.5% w/v agar were prepared. After solidification, the center plastic area (2 cm) of the plate was removed by scalpel. Olive seedlings were cut between the second and fourth node, and the cuttings were surface-sterilized by 70% ethanol and 1% sodium hypochlorite treatment, and then placed on the plates containing the agar media. The SL analog EGO10 was mixed with ½MS in agar, cubes were cut (1.5 cm area) and positioned at the base of the cutting in the plates (FIG. 4A). Olive seedlings treated with acetone at the same concentrations used in the EGO10 treatments represented the experimental controls. Plates were sealed in two sides only by saran wrap in order to prevent accumulation of gases. The plates were positioned in an upright 90° position and incubated at 22° C. under a photoperiod of 16 hours light followed by 8 hours dark. Photographs were taken every 3 days until day 12 by binocular. Each treatment included eight replicates. […] Bud outgrowth was measured (FIG. 4C) by Image J software and the length of the bud minus its length at the first day following application was calculated. Means of replicates were subjected to statistical analysis by using the IMP statistical package.
The ability of EGO10, applied to olive seedling cuttings through the bark of the stem, to reduce bud outgrowth was examined. An agar tube containing EGO10 was placed on the bark of the cutting (FIG. 6A). Additionally, for increased penetration of the hormone analog, the bark was scratched and the ability of EGO10 to reduce bud outgrowth in comparison to EGO10 application to non-scratched bark was tested.
As a next step in the development of SL application technology, different substances that can serve as media supporting the diffusion of SLs though the bark of plants were examined. As agar usually contains nutritional compounds, bacteria and fungi can easily contaminate agar cubes. Therefore, other substances were examined, as described hereinbelow. Experiments were performed similarly to those described in Example 3 above, by application of EGO10 in different media on the cutting bark, in plates. Bud outgrowth was monitored as described above.
Based on the results above, 30% HPC were mixed with two different concentrations of EGO10; 5 and 10 μM, and applied on the stem of olive seedling (FIG. 10). Bud outgrowth was monitored as described above and the results were compared to those obtained upon using agar cubes (described in Example 3), which served as a positive control.
In an attempt to improve HPC suitability to the examined system, HPC was mixed with glycerin in the ratio of 3:1. Glycerin, as a known humectant, has the capability to moist materials. In exemplary procedures, 5 μM EGO10 were added to the HPC and glycerin mixture, and then placed on the bark of olive cuttings. Bud outgrowth was monitored as described above.
A number of additional possible substances suitable as media for EGO10 application were screened, including polyvinyl acetate (PVAc), polyvinyl pyrrolidone (PVP) and hydroxy ethyl cellulose (HEC). The polymers were used at concentrations of 30% in water, however, as 30% PVP was not solid, it could not be tested. Accordingly, HEC and PVAc were examined for their ability to support EGO10 activity. Bud outgrowth was calculated as described above.

In the case of `CC1=C[C@H](O/C=C2\Cc3c(n(C)c4ccccc34)C2=O)OC1=O` [EGO10], the “Orobanche germination % with HPC at 60° C.” value ([1]; 60° C., 0 and 24 hours) is reported as “increased biological activity”, the “Orobanche germination % with HPC at different pH” value ([1]; basic and acidic pH (pH 4, pH 7, pH 10)) is reported as “increased biological activity” and the bud outgrowth ([2]; 5 μM in 30% HEC on the bark) is reported as “did not”. For the same molecule, the bud outgrowth ([2]; 5 μM in 30% PVAc on the bark) was “supported EGO10 activity of bud outgrowth inhibition”, the bud outgrowth ([2]; 5 μM in HPC mixed with glycerin (3:1) on the bark, until day 12) was “inhibited bud outgrowth throughout the experimental period” and the bud outgrowth ([2]; 5 μM in PVA:HEC (2:1) on the bark) was “did not sufficiently support EGO10 ability to act to inhibit bud outgrowth”. For the same molecule, the bud outgrowth ([2]; 5 μM in PVA:PVP (2:1) on the bark) was “did not sufficiently support EGO10 ability to act to inhibit bud outgrowth”, the bud outgrowth ([2]; 5 μM in agar cube at the base of the cutting, day 12, vs acetone control) was “marked reduction in bud outgrowth” and the bud outgrowth ([2]; 5 μM in agar cube on the bark, 96, 168 and 264 h, vs acetone control) was “significant reduction in bud outgrowth; also recorded: reduced bud outgrowth throughout the entire experimental period”. The bud outgrowth ([2]; 5 and 10 μM in 30% HPC on the stem) was “reduced bud outgrowth until day 4 post application”.
